Test results from US20110150798A1, “COMPOSITIONS AND METHODS FOR INCREASING CELLULAR FAR AND BLEACHING SKIN” (priority 2009, published 2011).

Assays:
[1] = test system: keratinocytes; experiment: Lipid production in keratinocytes, Oil Red O staining; assay type: cell-based; conditions: 2.5 uM, 48 hours, compared to DMSO control, FIG. 1
Excerpt: FIG. 1 is a photograph of keratinocytes treated with troglitazone and stained for lipids.

[2] = test system: human preadipocytes; experiment: Lipid production in preadipocytes, Oil Red O staining; assay type: cell-based; conditions: 1.1 uM, about 48 hours, FIG. 2 and FIG. 3
Excerpt: FIG. 2 is a photograph of human preadipocytes treated with troglitazone and stained for lipids. FIG. 3 is a photograph of human preadipocytes treated with troglitazone and stained for lipids.

Structure (SMILES): Cc1c(C)c2c(c(C)c1O)CCC(C)(COc1ccc(CC3SC(=O)NC3=O)cc1)O2 (racemic) [troglitazone, (RS)-5-(4-[(6-hydroxy-2,5,7,8-tetramethylchroman-2-yl)methoxy]benzyl)thiazolidine-2,4-dione]
- lipid production in the cells (lipid droplets stained with Oil Red O) [1]: increase in lipid production
- lipid production (quantity and size of lipid droplets stained with Oil Red O) [2]: increase in the lipid production
